pIC50: −log10 of the molar value. Where two headings read alike, the source gives them in different places.
Key:
[1] = system: thromboxane production in human platelet rich plasma (TxB2); test: Thromboxane production in human platelet rich plasma (TxB2 radioimmunoassay, collagen stimulated); format: cell-based; details: read-out: ACTIVITY (IC50 × 10^6 M)
Description: The antithrombotic activity of the compounds of the invention has been determined by their ability to inhibit production of thromboxane A2 (TxA2) by blood platelets the synthesis of which is an important factor in the aggregation of platelets and the initiation of thrombosis (R. J. Gryglewski, CRC Crit. Rev. Biochem., (1980), 7(4), 291).
The compounds of the invention have been tested by the following in vitro radioimmunoassays for their ability to inhibit thromboxane and affect prostacyclin production.
Thromboxane production in Human Platelet Rich Plasma
(§1) (a) Platelet rich plasma (prp) preparation
(§2) Human venous blood was […] from healthy male donors, who had denied any medication during the previous 14 days. Nine volumes of blood were mixed with one volume of 3.24% trisodium citrate. The citrated blood was centrifuged at 160 g for 10 mins. at 22° C. to obtain platelet rich plasma (prp). The platelets were then counted on a Coulter counter, and the platelet count was adjusted to 200,000 per μl with plasma.
(b) Thromboxane generation
The prp was then dispensed as aliquots into micro-Eppendorf tubes, maintained at 37° C. in a dry bath. The compounds, dissolved either in saline, ethanol, or dimethylsulphoxide, were added in duplicate to the prp aliquots to produce final concentrations in the range of 0.1-30 μg/ml. When ethanol and DMSO were used as the vehicle, triplicate controls containing the same percentage of vehicle as the test compounds were made. The final concentration of organic solvent was never more than 0.1%, which in previous experiments had no effect on TxB2 generation.
Following a 10 min. incubation with test compounds or vehicle, collagen was added to produce a final concentration of 20 μg/ml. The tubes were then whirly-mixed for 15 seconds and replaced in the dry bath for a further 10 minutes, controls received saline instead of collagen. The reaction was then stopped by rapid centrifugation (15000 g for 3 mins). The plasma was removed and frozen at -29° C. until assayed.
(c) Assay of Thromboxane B2
Briefly, 100 μl aliquots of the following, in 50 mM phosphate buffer+0.1% gelatin+thimerosal (pH 6.8) were incubated together for 16 hours at 4° C.: thromboxane TxB2 (plasma extract or standards 50 to 10,000 pg/ml), [^3 H]--TxB2 (approximately 15,000 dpm) and anti-TxB2 antiserum (0.5 μg/100 μl). The free and protein bound [^3 H]--TxB2 were separated by adsorption onto activated charcoal followed by centrifugation. […] of the supernatant was added to an aqueous scintillation fluid, and the radioactivity present was counted in a liquid scintillation counter. The binding of [^3 H]--TxB2 in the absence of added TxB2 was approximately 55%. The least amount of TxB2 to be detected accurately in the plasma was 50 pg/ml. Cross reactivity with other prostaglandins is less than 0.005% except PGD2 which is 1%.
Thus plasma samples were assayed to give a rough approximation of TxB2 content. The plasma was then appropriately diluted and assayed in duplicate to give accurate values.
The amount of TxB2 generated by the collagen was calculated by subtracting mean values obtained for the saline stimulated platelets from the mean values obtained from the collagen stimulated platelets. Then the amount of TxB2 generated in the presence of each concentration of compound was expressed as a % control and dose response curves were then constructed to determine the concentration of compound which produced a 50% inhibition.

[2] = system: PGI2 synthesis in cultured bovine arterial endothelial cells; test: Prostacyclin production in cultured aortic endothelial cells (6-keto PGF1α radioimmunoassay); format: cell-based; details: for Net PGI2 synthesis: control 120
Description: Prostacyclin Production in Cultured Aortic Endothelial Cells
Bovine aortic arch tissue was obtained from a local abattoir, and transported to the laboratory on ice. Arterial endothelial cells were obtained from the washed (phosphate buffered saline) aortic arch tissue by gentle scraping of the intima, within two hours of sacrifice. Cell suspensions were washed by centrifugation, resuspended, and propagated in Roswell Park Memorial Institute (RPMI) 1640 medium (Moore, G. E., J.A.M.A., (1967), 199, 519) 1640 medium+20% foetal calf serum (FCS)+antibiotics (1-2 doublings). The cells were then trypsinised, cloned by limiting dilution, selected colonies grown to confluence (3-4 passages), and stored in liquid nitrogen. When required, batches of cells were removed from store, resuscitated, and propagated in RPMI medium+10% FCS+antibiotics (passaged 6-15 times). At trypsinisation, representative cells from each passage were transferred to multiwell plates (1×10^5 cells/well) and incubated for 3 days (final count 3.5×10^5 cells/well).
The medium in each well of the plate was exchanged for serum and antibiotic free RPMI 1640, and a time 0 sample (100 μl) taken. Drugs or vehicle were next added as required, and a further sample (800 μl) taken from each well after a 60 minute incubation at 37° C. with gentle shaking. Prostacyclin synthesis and release into the medium over this period was estimated using an RIA technique for 6-keto PGF1α, the stable metabolite of PGI2 (New England Nuclear 6-keto PGF1α RIA kit, Catalogue No. NEK 008).
(b) Assay of 6-keto PGF1α
Briefly, 100 μl aliquots in 50 mM phosphate buffer+0.1% gelatin+0.01% thimerosal (pH 6.8) of the following were incubated together for 16 hours at 4° C.: 6-keto PGF1α (incubation medium extract or standards 10-1000 pg/0.1 ml), [^3 H]-6-keto PGF1α (approximately 15000 dpm) anti-6-keto PGF1α antiserum. The […] and protein bound [^3 H]-6-keto PGF1α were separated by adsorption onto activated charcoal followed by centrifugation. 850 μl of the supernatant was added to an aqueous scintillation fluid, and the radioactivity present counted in a liquid scintillation counter. The binding of [^3 H]-6-keto PGF1α in the absence of added 6-keto PGF1α was approximately 40%. The least amount of 6-keto PGF1α to be detected accurately in the samples was 100 pg/ml. Cross reactivity with other prostaglandins was less than 0.3% except PGE2 (2%) and PGF2α (2.7%).

[3] = system: collagen induced aggregation of human prp; test: Inhibition of platelet aggregation in vitro, collagen induced (turbidometric); format: cell-based; details: for IC50: Platelet, human prp, collagen, read-out: I.C.50 (μM) vs COLLAGEN; for inhibition of collagen induced aggregation of human prp: result in words
Procedure: as §1
as §2, with “Nine volumes of blood were mixed with one volume of 3.24% trisodium citrate.” left out
(§3) Inhibition of Platelet Aggregation in vitro

[4] = system: arachidonic acid induced aggregation of human prp; test: Inhibition of platelet aggregation in vitro, arachidonic acid induced (turbidometric); format: cell-based; details: for IC50: Platelet, human prp, arachidonic acid, read-out: I.C.50 (μM) vs ARACHIDONIC ACID; for inhibition of arachidonic acid induced aggregation of human prp: result in words
Procedure: as §1, §2, §3
In addition to the above tests, platelet aggregation in citrated prop (prepared as above) against a variety of aggregating agents was measured turbidometrically in a Payton Dual Channel Aggregometer (method as described in G.V.R. Born, Nature, (1962), 194, 927).

[5] = system: aggregation of human platelet rich-plasma; test: Aggregation of human platelet rich plasma (aggregating agent not stated); format: cell-based; details: in vitro, result in words
[6] = system: platelet aggregation in the male retired breeder rat; test: Antiplatelet activity in the male retired breeder rat model (platelet aggregate ratio); format: in vivo; details: read-out: EX50 (3h post oral administration)
Procedure: The retired breeder male rat may be utilized any time from 24 hours to 6 months after receipt without prior fasting or manipulation. […] The test (as described in R. N. Saunders, T. S. Burns, M. R. Selzer and E. R. Waskawic, Lab. Animal Sci., (1977), 27, 757-761) consists of the oral administration of the investigative compound either dissolved in or suspended in propylene glycol 400 at 20 mg/kg to four retired breeder male rats (40 mg of compound required). Three hours from the time of administration, the rats are ether anaesthetized, the abdominal cavity exposed and one ml of blood is withdrawn into each of two syringes from the vena cava. The first syringe contains four ml of buffered citrate/formalin solution and the second syringe contains four ml of buffered citrate alone. The syringes are inverted, held at room temperature for 15 minutes and the contents are centrifuged at 170 g for 14 minutes. Platelet counts are obtained on the undiluted solutions by means of a hemacytometer under 430×phase-contrast microscopy. The platelet aggregate ratio is obtained by dividing the platelet count of the first syringe by that of the second syringe. A ratio of 1.0 would indicate that no platelet aggregates are present whereas ratios below 1.0 indicate the presence and degree of platelet aggregate formation which has occurred.

[7] = male breeder rat, oral, 3h post administration

Compound	pIC50 [1]	IC50 [3] [µM]	IC50 [4] [µM]	ED50 [6, 7] [mg/kg]	also measured
COc1ccc(COCC(Cn2ccnc2)OCc2ccc(OC)cc2)cc1 (centres unmarked) [Example 1, 1-[2-[(4-methoxyphenyl)methoxy]-3-[(4-methoxyphenyl)methoxy]propyl]-1H-imidazole]	4.92	103	31	0.49	Net PGI2 synthesis ([2]; 26 µM): 125 pg 6-keto PGF1 α/60 min/3.5 × 10^5; Net PGI2 synthesis ([2]; 7.8 μm): 130 pg 6-keto PGF1 α/60 min/3.5 × 10^5; Net PGI2 synthesis ([2]; 26.0 μm): 106 pg 6-keto PGF1 α/60 min/3.5 × 10^5; Net PGI2 synthesis ([2]; 78.0 μm): 135 pg 6-keto PGF1 α/60 min/3.5 × 10^5; activation at 2.6 µM ([2]; Bos taurus, Endothelial cell, 1 h, 2.6 μm, 60 min, read-out: % Change (PGI2 synthesis)): 4%; activation at 7.8 µM ([2]; Bos taurus, Endothelial cell, 1 h, 7.8 μm, 60 min, read-out: % Change (PGI2 synthesis)): 8%; activation at 26 µM ([2]; Bos taurus, Endothelial cell, 1 h, 26.0 μm, 60 min, read-out: % Change (PGI2 synthesis)): -12%; activation at 78 µM ([2]; Bos taurus, Endothelial cell, 1 h, 78.0 μm, 60 min, read-out: % Change (PGI2 synthesis)): 12%; effect on production of prostacyclin ([2]; at concentrations equivalent to those which inhibit TxA2 formation, result in words): not to significantly effect production of prostacyclin; effect on basal PGI2 synthesis ([2]; at concentrations substantially in excess of those which inhibit platelet thromboxane synthetase, 1 hour, result in words): no significant effect on basal PGI2 synthesis; inhibition of collagen induced aggregation of human prp [3]: clearly more active than aspirin, dipyridamole, or sulphinpyrazone; inhibition of arachidonic acid induced aggregation of human prp [4]: clearly more active than aspirin, dipyridamole, or sulphinpyrazone; aggregation of human platelet rich-plasma [5]: the aggregation of human platelet rich-plasma
COc1ccc(COCC(Cn2ccnc2)OCc2ccccc2)cc1 (centres unmarked) [Example 2]	4.96	–	–	–	–
COc1ccc(COCC(Cn2ccnc2)OCc2ccc(Cl)cc2)cc1 (centres unmarked) [Example 4]	4.64	–	–	–	–
COc1ccc(COCC(Cn2ccnc2)OCc2ccc3c(c2)OCO3)cc1 (centres unmarked) [Example 20]	5.40	89	24	1.8	inhibition of collagen induced aggregation of human prp [3]: clearly more active than aspirin, dipyridamole, or sulphinpyrazone; inhibition of arachidonic acid induced aggregation of human prp [4]: clearly more active than aspirin, dipyridamole, or sulphinpyrazone
CC(=O)Oc1ccccc1C(=O)O [aspirin, reference compound]	–	–	56	–	ED50 ([6]; Rattus norvegicus, po, 3 h): 7.7 mg/kg
OCCN(CCO)c1nc(N2CCCCC2)c2nc(N(CCO)CCO)nc(N3CCCCC3)c2n1 [dipyridamole, reference compound]	–	> 200	> 200	1.8	–
O=C1C(CC[S+]([O-])c2ccccc2)C(=O)N(c2ccccc2)N1c1ccccc1 (centres unmarked) [sulphinpyrazone, reference compound]	–	173	–	4.1	–

The next lines start with results.

pIC50 [1]	Compound	IC50 [3] [µM]	IC50 [4] [µM]	ED50 [6, 7] [mg/kg]	also measured
4.85	COc1ccc(COCC(Cn2ccnc2)OCc2cccc(OC)c2)cc1 (centres unmarked) [Example 15]	–	–	–	–
4.92	COc1ccc(COCC(Cn2ccnc2)OCc2ccc(C#N)cc2)cc1 (centres unmarked) [Example 24]	–	–	–	–
5.00	COc1ccc(COCC(Cn2ccnc2)OCc2ccccn2)cc1 (centres unmarked) [Example 28]	–	–	–	–
4.70	COc1ccc(COCC(Cn2ccnc2)OCc2ccsc2)cc1 (centres unmarked) [Example 30]	–	–	–	–
4.89	c1cncc(COC(COCc2ccc3c(c2)OCO3)Cn2ccnc2)c1 (centres unmarked) [Example 34]	–	–	–	–
4.66	COc1ccc(COC(CSCc2ccc(OC)cc2)Cn2ccnc2)cc1 (centres unmarked) [Example 35]	–	–	–	–

Reference: patent publication US4636518A, “Imidazole derivatives and pharmaceutical compositions” (G. D. Searle & Co., priority 1981, dated 1987)
